Experimental data as given in patent US7785828B1 (priority 2003, dated 2010).
Where two headings read alike, the source gives them in different places.

How the values were obtained:
Fusarium graminearum [1] = tested on: Fusarium graminearum; set-up: species or system wheat; details: in vivo
Fusarium graminearum [2] = assay type: cell-based
Septoria tritici [3] = assay type: cell-based
Mycosphaerella fijiensis = assay type: cell-based
Fusarium graminearum [4] = assay type: cell-based
Septoria tritici [5] = assay type: cell-based; set-up: key: + indicates a 1- to 5-fold improvement in activity compared to a reference defensin protein; ++ indicates a >5- to 10-fold improvement; +++ indicates a >10-fold improvement; “0” indicates no activity detected
[6] = Table 2C (mixed diversity library), improvement compared to reference defensin protein DmAMP
[7] = Measurement taken at 72 hours after inoculation, fold improvement compared to DmAMP1
[8] = Measurement taken at 144 hours after inoculation, fold improvement compared to DmAMP1
[9] = Table 2B (Dm-AMP1 based libraries), improvement compared to reference defensin protein (Rs-AFP2 for Table 2B [sic])

Row | Sequence | disease spread compared to NP or wildtype defensin expression level in the infected plant (Fusarium graminearum [1]) | Activity (1): antifungal activity of the NP against Fusarium graminearium (Fusarium graminearum [4]; [6]) | Antifungal activity, Fusarium graminearum (improvement compared to DmAMP1) (Fusarium graminearum [2]; [7]) | Antifungal activity, Septoria tritici (improvement compared to DmAMP1) (Septoria tritici [3]; [8]) | Antifungal activity, Mycosphaerella fijiensis (improvement compared to DmAMP1) (Mycosphaerella fijiensis; [8]) | other results
1 | ELCEKASKTWSGNCGNTKHCDTQCKNWEGAKHGACHVRSGKHKCFCYFNC (Defensin like) [L3-135] | clear inverse correlation between expression level and disease spread | – | – | – | – | –
2 | QKLCQRPSGTWSGVCMNNNACKNQCIRLEKAKHGSCNYVFPAHKCICYFPC (Defensin like) [L2-52] | No clear correlation | – | – | – | – | –
3 | QKLCQKPSRTWSGVCGNNNACKNQCIRLEKARHGSCNYVFPAHKCICYFPC (Defensin like) [L2-12] | A protective effect was also seen | – | – | – | – | –
4 | NLCERASKTWSGNCGNTKHCDNQCKNWEGAKHGACHVRNGKHKCFCYFNC [L6-28] (Defensin like) | No clear correlation | – | – | – | – | Antifungal activity, Fusarium graminearum (improvement compared to DmAMP1) (Fusarium graminearum [2]): +++ (key: + indicating 1- to 5-fold improvement compared to DmAMP1; ++ indicating >5- to 10-fold improvement; +++ indicating >10-fold improvement); Antifungal activity, Septoria tritici (improvement compared to DmAMP1) (Septoria tritici [3]): + (key: + indicating 1- to 5-fold improvement compared to DmAMP1; ++ indicating >5- to 10-fold improvement; +++ indicating >10-fold improvement); Antifungal activity, Mycosphaerella fijiensis (improvement compared to DmAMP1) (Mycosphaerella fijiensis): + (key: + indicating 1- to 5-fold improvement compared to DmAMP1; ++ indicating >5- to 10-fold improvement; +++ indicating >10-fold improvement)
5 | DGVKLCERPSQTWTGNCGNTKHCDKQCRNWEGAKHGACHVRNGKWKCFCYFNC (Defensin like) [L7-39] | – | ++ (++ indicates a >5- to 10-fold improvement) | + (+ indicating 1- to 5-fold improvement compared to DmAMP1) | + (+ indicating 1- to 5-fold improvement compared to DmAMP1) | + (+ indicating 1- to 5-fold improvement compared to DmAMP1) | –
6 | DGVKLCERASKTWTGNCGNTKHCDKQCKNWEGAKHGACHVRNGKWKCFCYFNC (Defensin like) [L7-449] | – | ++ (++ indicates a >5- to 10-fold improvement) | +++ (+++ indicating >10-fold improvement) | ++ (++ indicating >5- to 10-fold improvement) | + (+ indicating 1- to 5-fold improvement compared to DmAMP1) | –
7 | DGVKLCERASKTWSGHCGNTKHCDNQCRSWEGAKHGACHVRNGKWKCFCYFNC (Defensin like) [L7-452] | – | +++ (+++ indicates a >10-fold improvement) | ++ (++ indicating >5- to 10-fold improvement) | + (+ indicating 1- to 5-fold improvement compared to DmAMP1) | + (+ indicating 1- to 5-fold improvement compared to DmAMP1) | –
8 | NLCERASKTWTGNCGNTKHCDTQCKSWEGAKHGACHVRNGKHKCECYFNC (NLCERASKTWTGNCGNTKHCDTQCKSWEGAKHGACHVRNGKHKCFCYFNC; Defensin like) [L6-84] | – | – | +++ (+++ indicating >10-fold improvement) | + (+ indicating 1- to 5-fold improvement compared to DmAMP1) | +++ (+++ indicating >10-fold improvement) | Activity (1): antifungal activity of the NP against Fusarium graminearium (Fusarium graminearum [4]; [9]): +++ (+++ indicates a >10-fold improvement)
9 | QKLCEKPSRTWSGVCGNNNACKNQCIRLEKARHGSCNYRFPAHKCICYVPC (Defensin like) [L1-01] | – | – | – | – | – | Activity (2): antifungal activity against Septoria tritici (Septoria tritici [5]): 0
10 | DGVKLCERASQTWTGHCGNTKHCDKQCRNWEGAKHGACHKRNGKWKCFCYFNC (Defensin like) [L7-179] | – | +++ (+++ indicates a >10-fold improvement) | + (+ indicating 1- to 5-fold improvement compared to DmAMP1) | + (+ indicating 1- to 5-fold improvement compared to DmAMP1) | + (+ indicating 1- to 5-fold improvement compared to DmAMP1) | –
11 | NLCERASKTWTGNCGNTKHCDNQCRSWEGAKHGACHVRNGKHKCFCYFNC (Defensin like) [L6-75] | – | – | +++ (+++ indicating >10-fold improvement) | +++ (+++ indicating >10-fold improvement) | + (+ indicating 1- to 5-fold improvement compared to DmAMP1) | Activity (1): antifungal activity of the NP against Fusarium graminearium (Fusarium graminearum [4]; [9]): ++ (++ indicates a >5- to 10-fold improvement)
12 | DGVKLCERASQTWTGHCGNTKHCDKQCKNWEGAKHGACHKRNGKWKCFCYFNC (Defensin like) [L7-432] | – | +++ (+++ indicates a >10-fold improvement) | +++ (+++ indicating >10-fold improvement) | + (+ indicating 1- to 5-fold improvement compared to DmAMP1) | +++ (+++ indicating >10-fold improvement) | –
